Measurements from US10874636B2, “Application of substituted cinnamamide derivatives in preparation of anti-anxiety medication” (TASLY PHARMACEUTICAL GROUP CO., LTD., priority 2016, dated 2020).

Tests used:
mice = test: Elevated plus-maze test for mice; type: in vivo, ICR male mice; conditions: 10 mg/kg intragastric for 1 week; in words
Procedure: 247 ICR male mice aged 6-8 weeks with the weight of 18-22 g were taken and fed adaptively for 1 week. Then, these mice were evenly divided, at random, into 19 groups based on their weights. Intragastric administration was conducted once a day according to the drugs and dosages listed in Table 1, which lasted for 7 consecutive days. 20 minutes after administration on the 7th day, the elevated plus-maze test was conducted.
The elevated plus-maze (EPM) for mice were composed of two opposite open arms (50 cm×10 cm) and two opposite enclosed arms (50 cm×10 cm×40 cm), wherein upper portions of the enclosed arms were not capped, an open portion of 10 cm×10 cm was located in the middle of the maze, and the maze was 50 cm away from the ground. The test was conducted in a quite environment at a time period ranging from 13:00 to 18:00.
The open-arms entries (OE) and enclosed-arms entries, as well as the residence time in two arms, of the mice, within 5 minutes, were recorded respectively, and the percentage of the open-arms entries (OE %) and that of the open-arms time (OT %) for each group of mice with respect to the total entries into the two arms and the total residence time in the two arms therein were calculated respectively.
Analysis was conducted using SPSS 11.5 software, and data were represented by x±S, the significance of differences between groups was compared using the analysis of variance, differences were significant while P was less than 0.05.

rats = test: Drinking conflict experiment for rats (Vogel test); type: in vivo, SD male rats; conditions: for Effect on water licks of the rats during the punished session compared with the solvent control groups: 5 mg/kg intragastric for 10 days, in words; for Water licks of rats during punished session: 5 mg/kg intragastric once a day for 10 days, test half an hour after final administration, 3 minutes, 0.3 mA, x±S
Procedure: 230 SD male rats with the weight of 180-220 g were taken and fed adaptively for 1 week. Then, these rats were divided, at random, into 19 groups based on their weights, 12-13 rats in each group. Intragastric administration was conducted one a day according to the drugs and dosages listed in Table 2, which lasted for 10 consecutive days. Water deprivation 48 hours before the final administration, and non-punitive drinking training was conducted on the 9th day; on the 10th day, half an hour after the final intragastric administration of all the groups, the punitive experimental test was conducted.
On the first stage (non-punitive drinking training): after water deprivation for 24 hours, the rats were placed in operation boxes individually to explore thoroughly, until they found bottle mouths and began to lick water, water licks of the rats within 3 minutes under the conditions of no electric shock (the condition was set as follows: the strength of electric shock was 0 mA) were automatically recorded by counters, and rats whose water licks were less than 300 were eliminated. On the second stage (punitive experiment): the above rats which were not eliminated were placed in the operation boxes after continuing the water deprivation for 24 hours (48 hours in total). The rats could find the bottle mouths rapidly and begin to lick water, the instruments began to time automatically and imparted one electric shock (the ratio of licks to the number of electric shocks was 20:1) while the water licks reached to 20, wherein the strength of electric shocks was 0.3 mA, lasting for 2 seconds, but these rats may control the length of the time for which they were electrically shocked by keeping away from the bottle mouths. Water licks of the rats during the punished session (3 minutes) were recorded.
Observational indexes of the Vogel drinking conflict model: water licks of the rats during the punished session.

Molecule	Effect on open-arms entries of the mice compared with the solvent control groups (mice)	Effect on open-arms time of the mice compared with the solvent control groups (mice)	Effect on water licks of the rats during the punished session compared with the solvent control groups (rats)	Water licks of rats during punished session (rats)
CC(C)CNC(=O)c1cc(O)c(O)c(C(F)(F)F)c1 [III-11, 3,4-dihydroxyl-5-trifluoromethyl-benzoic acid isobutylamide]	increase the open-arms entries of the mice	prolong their open-arms time	increase water licks of the rats during the punished session	361.13 ± 38.38
COc1cc(/C=C/C=C/C(=O)NCC(C)C)cc(C(F)(F)F)c1OC [III-13, 5-(5′-trifluoromethyl-3′,4′-dimethoxyphenyl) pentadienoic acid isobutylamide]	increase the open-arms entries of the mice	prolong their open-arms time	increase water licks of the rats during the punished session	375.67 ± 58.13
N-methyl-(5′-trifluoromethyl-3′,4′-methylenedioxy)-amphetamine hydrochloride [II-16]	increase the open-arms entries of the mice	prolong their open-arms time	increase water licks of the rats during the punished session	406.56 ± 65.38
